One series relates to HL-60 cells. Kind of series: IC50 determination: incorporation of 13C-acetate into cholesterol in HL-60 cells (GC-MS). The class given is cell-based. The conditions noted are these: Homo sapiens, read-out: HL60 assay activity. How it is done: Two test concentrations (1 μM and 50 μM) were used. The compounds were dissolved in ethanol or DMSO and the testing-stock solutions are prepared taking a final dilution of 1:100 into account. Ultimately 10 μL of testing stock solution were added to 990 μL of lipid-free medium containing 1% lipoprotein deficient serum (LPDS) without antibiotics. HL-60 cells (1×10^6 cells) were incubated in 24-well plates in 1.0 mL of medium consisting of 990 μL of lipid free medium with 1% LPDS and 10 μL of respective inhibitor solution.
For IC50 determination, the incorporation of labelled acetate in the target molecule cholesterol is being assessed and the protocol is altered in the following manner: to each well 10 μL of a sterile sodium 2-^13C-acetate solution (6.25 mg/mL) were added before the addition of the inhibitor solution, leading to a final ^13C-acetate concentration of 62.5 μg/mL. After saponification 3×25 μL aliquots are taken for protein determination applying the Bradford reagent. After work-up and silylation, GC-MS analysis allows the quantification ^13C incorporation into cholesterol according to the below given formula. The percentage inhibition (see formula) relative to untreated control samples (0% inhibition) was plotted against the logarithmic inhibitor concentration using Graph Pad Prism 4 (or higher). A bottom level constant equal to 0 is set as constraint using a sigmoidal dose-response model with a various slope. All samples are normalised to their protein. For each concentration the inhibitory percentage is determined in triplicate.
The above formula is the calculation formula for the percentage inhibition, where AS represents the area sample; AI.S.C. represents the area internal standard control; PCC represents the protein content control; AC represents the area control; AI.S.S. represents the area internal standard sample; and PCs represents the protein content sample.

Series [1] deals with male E3L.CETP mice. Kind of series: Rescue experiment: E3L.CETP mice on HFCD for 10 weeks, then SH42 for additional 8 weeks. The class given is in vivo. The source says:
Hemizygous APOE*3-Leiden (E3L) mice were crossbred with homozygous human cholesteryl ester transfer protein (CETP) transgenic mice to generate heterozygous E3L.CETP mice on a C57BL/6J background [M. Westerterp et al., “Cholesteryl ester transfer protein decreases high-density lipoprotein and severely aggravates atherosclerosis in APOE*3-Leiden mice”; Arterioscler Thromb Vasc Biol 26, 2552-2559 (2006)]. Because of phenotypical heterogeneity of E3L. CETP mice, non-responder mice were identified by 4-hour fasting plasma lipid levels, i.e., total cholesterol levels <2 mM and triglyceride levels <2 mM, and excluded before special diet treatment. LXRα-deficient mice (also on C57BL/6J background), generated by Deltagen using gene-targeting methods as described [T. Plosch et al., “Abcg5/Abcg8-independent pathways contribute to hepatobiliary cholesterol secretion in mice”; Am J Physiol Gastrointest Liver Physiol, 291, G414-423 (2006)(33)] were provided by Tularik (San Francisco, CA, US). Mice were group-housed in individually ventilated cages in standard conditions at room temperature (22° C.) with 40±5% relative humidity and a 12-h light/dark (7 am lights on; 7 pm lights off) cycle. All animals received humane care according to the criteria outlined in the NIH “Guide for the Care and Use of Laboratory Animals”. All animal procedures were performed in conformance with the guidelines from Directive 2010/63/EU of the European Parliament on the protection of animals used for scientific purposes.
At the age of 10-12 weeks, male E3L.CETP mice and LXRα-deficient mice were fed a high fat high cholesterol diet (HFCD; Altromin, Germany) containing 60% (energy) fat and 1% (wt/wt) cholesterol, and were randomized into two groups treated with either the DHCR24 inhibitor compound of Example 11 [also referred to herein as SH42] (0.5 mg·mouse^−1) or vehicle (saline containing 3.3% ethanol and 3.3% Cremophor EL) 3 times per week by intraperitoneal injection. E3L.CETP mice were treated for 4 weeks (n=6 mice per group) and 8 weeks (n=8 mice per group) to evaluate effects on hepatic immune cells via flow cytometry analysis and hepatic steatosis via quantitative lipidomic analysis, respectively. LXRα-deficient mice were treated with either SH42 (n=11 mice) or vehicle (n=10 mice) for 4 weeks to evaluate effects on hepatic steatosis and immune cells. In a rescue experiment, male E3L.CETP mice were fed with HFCD for 10 weeks first and cotreated with SH42 (0.5 mg mouse^−1) or vehicle (saline containing 3.3% ethanol and 3.3% Cremophor EL) 3 times per week by intraperitoneal injection for additional 8 weeks.
Body weight was measured weekly. Body composition (i.e. fat body and lean body mass; EchoMRI-100; EchoMRI, Houston, TX, USA) was evaluated before and after intervention. Food intake was determined during the treatment period.

In series [2] the test system is male E3L.CETP mice. Kind of series: E3L.CETP mice on high fat high cholesterol diet, SH42 for 8 weeks (hepatic steatosis, lipidomics, immunohistochemistry, plasma lipids). It counts as in vivo.
For series [3], the system named is male E3L.CETP mice. In words: E3L.CETP mice on HFCD, SH42 for 4 weeks, flow cytometry of hepatic immune cells. It counts as in vivo. An excerpt: Hemizygous APOE*3-Leiden […]) mice were crossbred with homozygous human cholesteryl ester transfer protein (CETP) transgenic mice to generate heterozygous E3L.CETP mice on a C57BL/6J background [[…] al., “Cholesteryl ester transfer protein decreases high-density lipoprotein and severely aggravates atherosclerosis in APOE*3-Leiden mice”; Arterioscler Thromb Vasc Biol 26, 2552-2559 (2006)]. Because of phenotypical heterogeneity of E3L. CETP mice, non-responder mice were identified by 4-hour fasting plasma lipid levels, i.e., total cholesterol levels <2 mM and triglyceride levels <2 mM, and excluded before special diet treatment. LXRα-deficient mice (also on C57BL/6J background), generated by Deltagen using gene-targeting methods as described [T. Plosch et al., “Abcg5/Abcg8-independent pathways contribute to hepatobiliary cholesterol secretion in mice”; Am J Physiol Gastrointest Liver Physiol, 291, […]-423 (2006)(33)] were provided by Tularik (San Francisco, CA, US). […] All animals received humane care according to the criteria outlined in the NIH “Guide for the Care and Use of Laboratory Animals”. All animal procedures were performed in conformance with the guidelines from Directive 2010/63/EU of the European Parliament on the protection of animals used for scientific purposes. At the age of 10-12 weeks, male E3L.CETP mice and LXRα-deficient mice were fed a high fat high cholesterol diet (HFCD; […] LXRα-deficient mice were treated with either SH42 (n=11 mice) or vehicle (n=10 mice) for 4 weeks to evaluate effects on hepatic steatosis and immune cells. In a rescue experiment, male E3L.CETP mice were fed with HFCD for 10 weeks first and cotreated with SH42 (0.5 mg mouse^-1) or vehicle (saline containing 3.3% ethanol and 3.3% Cremophor EL) 3 times per week by intraperitoneal injection for additional 8 weeks.
For orientation: In flow cytometry, cells or beads pass a laser one at a time.

[4] abbreviates: HL-60 cells, 24 h, 13C-acetate incorporation into cholesterol.
[5] abbreviates: 10 weeks HFCD, then 8 weeks treatment.
[6] abbreviates: 8 weeks, absolute concentration.
The mark [7] stands for this setting: after 8 weeks of treatment, vs control group.

Like-named read-outs stand apart in the source and are kept apart here.

Consider `C[C@H](CSSc1ccccn1)C1CCC2C3=CCC4C[C@@H](O)CC[C@]4(C)C3CC[C@@]21C` (some centres unmarked) [Example 5], for which, in the series on HL-60 cells (setting [4]), the IC50 is 0.417 µM.
Turning to `CC(=O)O[C@H]1CC[C@@]2(C)C(CC=C3C2CC[C@@]2(C)C3CCC2[C@H](C)COC=O)C1` (some centres unmarked) [Example 11], in the series on male E3L.CETP mice [1] (setting [5]), the body composition entry is “did not significantly influence”; the “collagen content (liver fibrosis), change” value is −50%; the “hepatic crown-like structures, change” value is listed as −89%; the hepatic steatosis entry is given as “No difference”. Also, in the series with male E3L.CETP mice [1] (setting [5]), the “increase in plasma desmosterol levels” value was greater than 400 fold; the liver weight result was “No difference”; the “plasma alanine transaminase (ALT), change” value is −42%; the total body weight entry is “did not significantly influence”. In addition, the F4/80 positive area entry in the series on male E3L.CETP mice [1] (mouse, in vivo) is given as “without significant influence”. The food intake entry in the series on male E3L.CETP mice [2] (0.5 mg/mouse i.p. 3 times per week, 8 weeks, vs vehicle) is listed as “did not affect”. Also, the “HFCD-induced body weight gain” value in the series on male E3L.CETP mice [2] (0.5 mg/mouse i.p. 3 times per week, vs control group) is reported as “temporarily preventing”. In the series on male E3L.CETP mice [2] (8 weeks), the fasting plasma glucose entry is recorded as “did not affect”; the fasting plasma insulin result is “did not affect”; the “homeostatic Model Assessment for Insulin Resistance (HOMA-IR) scores” value is “did not affect”; the “weight of various tissues (liver, white adipose tissue, kidney, heart, lung, spleen, brown adipose tissue)” value is “unchanged”. In the series with male E3L.CETP mice [2] (setting [6]), the “plasma levels of FFA, change” value is given as −16%; the “plasma levels of total DAG” value was “did not affect”; the “plasma levels of total TAG” value was “did not affect”. Besides, in the series with male E3L.CETP mice [2] (8 weeks, absolute concentration, p=0.08), the “plasma levels of CE, change” value was −24%. In the series with male E3L.CETP mice [2] (8 weeks, immunohistochemistry), the “hepatic F4/80 content, change” value is given as −29% and the “number of hepatic crown-like structures, change” value is given as −79%. Moreover, the “hepatic free fatty acids (FFA), change” value in the series with male E3L.CETP mice [2] (8 weeks, liver) is recorded as −16%. Moreover, in the series on male E3L.CETP mice [2] (8 weeks, liver lipidomics), the “other liver lipid classes, including CER, PC, PE and SM (relative)” value is “relative increase”; the “relative reduction of DAG in liver lipid class composition” value was −22%; the “relative reduction of TAG in liver lipid class composition” value is given as −21%. For the same compound, in the series on male E3L.CETP mice [2] (8 weeks, liver, vs vehicle), the “increase of hepatic desmosterol levels” value stood at 10 fold. Further, in the series with male E3L.CETP mice [2] (8 weeks, plasma), the “circulating CE (relative, plasma lipidome)” value was “relatively decreased”; the “lactosylceramides (LCER), phosphatidylcholine (PC) and phosphatidylethanolamine (PE) (relative, plasma lipidome)” value is recorded as “relatively increasing”. Moreover, in the series with male E3L.CETP mice [2] (8 weeks, vs control treatment), the “hepatic steatosis score (HE staining), change” value is recorded as −58% and the “liver lipid area, change” value is recorded as −35%. Also, in the series on male E3L.CETP mice [2] (setting [7]), the “body composition (lean body mass and fat body mass)” value is “comparable to that of the control group”; the body weight entry is “comparable to that of the control group”. This compound had a plasma desmosterol levels with male E3L.CETP mice [2] (plasma, from undetectable levels (<0.5 μg·mL^−1)) of 3.1 ± 0.4 µg/mL. In addition, in the series with male E3L.CETP mice [3], the circulating neutrophils result is “without affecting”; the “hepatic neutrophils, change” value is reported as −50%; the “monocytes in liver, change” value was −79%. Further, in the series with male E3L.CETP mice [3] (flow cytometry), the “MHCII+/CD11c+ activated KCs” value is listed as “did not significantly reduce”; the “MHCII−/CD11c− resting KCs, change” value is “+21%”; the “total Kupffer cells (KCs), change” value is reported as “+44%”. In the series on male E3L.CETP mice [3] (flow cytometry, p=0.09), the “total hepatic leukocytes, change” value is recorded as −37%. In addition, the “monocytes in blood, change” value in the series on male E3L.CETP mice [3] (p=0.06) is −43%.
With `CC(=O)O[C@H]1CC[C@@]2(C)C(CC=C3C2CC[C@@]2(C)C3CCC2[C@H](C)COC(=O)CN(C)C)C1` (some centres unmarked) [Example 25], in the series with HL-60 cells (HL-60, 24 h), the IC50 amounted to 0.006 µM.
Regarding `C[C@H](CO)C1CCC2C3CC=C4C[C@@H](O)CC[C@]4(C)C3CC[C@@]21C` (some centres unmarked) [Example 29], the IC50 in the series with HL-60 cells (HL-60, 24 h) was determined as 0.003 µM.
On the same count and under the same terms, as for `C[C@@H](CO)[C@H]1CC[C@H]2C3=CCC4C[C@@H](O)CC[C@]4(C)[C@H]3CC[C@]12C` (stereo partly drawn) [Example 30, (3S,20R)-20-(Hydroxymethyl)-pregn-7-en-3-ol], the figure is 0.3 µM; as for `C[C@H](CO)[C@H]1CC[C@H]2C3=CCC4C[C@H](O)CC[C@]4(C)[C@H]3CC[C@]12C` (stereo partly drawn) [Example 31, (3R,20S)-20-(Hydroxymethyl)-pregn-7-en-3-ol], 0.28 µM.
In the case of `C[C@H](CO)C1CCC2c3ccc4c(c3CC[C@@]21C)CC[C@H](O)C4` (stereo partly drawn) [Example 33, (3S,20S)-20-(Hydroxymethyl)-pregn-5,7,9-trien-3-ol], the IC50 in the series with HL-60 cells (setting [4]) stood at 0.175 µM.
The same measure, in the same setting: as for `CC(=O)O[C@H]1CC[C@@]2(C)C(CC=C3[C@@H]4CC[C@H]([C@H](C)CCOC=O)[C@@]4(C)CC[C@@H]32)C1` (stereo partly drawn) [Example 34, (3S,20R)-20-(2-Formyloxyethyl)-pregn-7-en-3-yl Acetate], the figure is 1 µM; as for `C=C(F)C(=O)OC[C@@H](C)C1CCC2c3ccc4c(c3CC[C@@]21C)CC[C@H](OC(C)=O)C4` (stereo partly drawn) [Example 35, (3S,20S)-20-[(2-Fluoroacryloyloxy)methyl]-pregn-5,7,9-trien-3-yl Acetate], 0.13 µM; as for `C=C(F)C(=O)N(C)C[C@@H](C)[C@H]1CC[C@H]2C3=CCC4C[C@@H](OC(C)=O)CC[C@]4(C)[C@H]3CC[C@]12C` (stereo partly drawn) [Example 37, (3S,20S)-20-[(2-Fluoro-N-methylacrylamido)methyl]-pregn-7-en-3-yl Acetate], 0.11 µM.

The values above are taken from patent US20250312355A1, “DHCR24 INHIBITORY COMPOUNDS” (ACADEMISCH ZIEKENHUIS LEIDEN (H.O.D.N. LUMC), priority 2022, published 2025).
